Columns and labels:
[1] = tested on: viruses (HIV, Vaccinia virus, Cowpox virus, etc.); conditions: previously reported; cited from earlier work
[2] = target: T1, Ureaplasma parvum thymidine kinase (UpTK) (Ureaplasma parvum serovar 3, UniProt Q9PPP5); test: Phosphate transfer assay with [γ-32P]-ATP; format: biochemical; conditions: for Vmax values of UpTK, times lower than with AZT: compared with AZT
T1 sequence (Q9PPP5 1-223): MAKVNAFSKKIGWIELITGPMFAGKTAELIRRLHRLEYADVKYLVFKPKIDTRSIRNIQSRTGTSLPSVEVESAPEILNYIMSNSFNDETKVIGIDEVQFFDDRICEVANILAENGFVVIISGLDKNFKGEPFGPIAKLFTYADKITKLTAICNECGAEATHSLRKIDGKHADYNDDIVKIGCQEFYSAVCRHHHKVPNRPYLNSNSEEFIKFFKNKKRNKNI

[3] = target: T2, human thymidine kinase 1 (hTK1) (Homo sapiens, UniProt P04183); test: IC50 determination, DE-81 filter paper [3H]-dThd assay, hTK1; format: biochemical
T2 sequence (P04183 1-234): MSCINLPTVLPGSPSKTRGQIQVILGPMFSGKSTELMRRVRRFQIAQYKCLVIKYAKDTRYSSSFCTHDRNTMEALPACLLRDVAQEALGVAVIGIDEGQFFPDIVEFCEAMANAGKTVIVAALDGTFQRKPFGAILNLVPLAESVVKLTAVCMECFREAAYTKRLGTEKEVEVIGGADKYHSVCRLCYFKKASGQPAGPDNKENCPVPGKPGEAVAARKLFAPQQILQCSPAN

Compound	Antiviral activity [1]	Relative efficiency with UpTK ([2]; compared to dThd (set to 100%)) [%]	Vmax values of UpTK, times lower than with AZT [2]	IC50 [3] [µM]	Phosphorylation with UpTK compared to hTK1 (relative activity) ([2]; UpTK vs hTK1)
Cc1cn([C@H]2C[C@H](n3cc(CO)nn3)[C@@H](CO)O2)c(=O)[nH]c1=O [Compound 1, 3′-(4-Hydroxymethyl-1,2,3-triazol-1-yl)-3′-deoxythymidine]	devoid of significant antiviral activity	–	–	–	–
CCCc1cn([C@H]2C[C@H](n3cc(C)c(=O)[nH]c3=O)O[C@@H]2CO)nn1 [Compound 6, 3′-(4-Propyl-1,2,3-triazol-1-yl)-3′-deoxythymidine]	–	1.6	–	–	–
Cc1cn([C@H]2C[C@H](n3cc(-c4ccccc4)nn3)[C@@H](CO)O2)c(=O)[nH]c1=O [Compound 9, 3′-(4-Phenyl-1,2,3-triazol-1-yl)-3′-deoxythymidine]	devoid of significant antiviral activity	–	3–4	–	–
Cc1cn([C@H]2C[C@H](n3cc(-c4ccccn4)nn3)[C@@H](CO)O2)c(=O)[nH]c1=O [Compound 12, 3′-(4-(2-Pyridine)-1,2,3-triazole-1-yl)-2′-deoxythymidine]	devoid of significant antiviral activity	–	3–4	40 to 50	–
Cc1cn([C@H]2C[C@H](n3cc(-c4ccc(F)cc4)nn3)[C@@H](CO)O2)c(=O)[nH]c1=O [Compound 13, 3′-(4-(4-Fluorophenyl)-1,2,3-triazole-1-yl)-2′-deoxythymidine]	devoid of significant antiviral activity	–	3–4	–	five times more potent with UpTK than hTK1
